In paper PMC12841663, “Antiprotozoal Potential of Cultivated Geranium macrorrhizum Against Giardia duodenalis, Trichomonas gallinae and Leishmania infantum” (International Journal of Molecular Sciences, 2026):
≈ marks a conversion by molar mass, not a printed value. Entries after “also recorded” stand apart in the source; their conditions may differ.

How the values were obtained:
T. gallinae trophozoites = assay: Anti-Trichomonas activity assay (MTT viability); type: cell-based; conditions: pure compounds
Protocol: The anti-Trichomonas (AT) activity assay utilized T. gallinae trophozoites from an isolate obtained from a wood pigeon by Dr. […] EOs and pure compounds were solved in DMSO (Sigma, Madrid, Spain) (<1% final concentration). […] Trophozoites/promastigotes viability was assessed using the modified MTT colorimetric assay, as described previously in the literature, with results further validated by microscopic examination. The plate was analyzed in a spectrophotometer at a wavelength of 570 nm. The percentage of antiparasitic activity was calculated as growth inhibition, using the following formula: % AT = 100 - [(Ap - Ab) ÷ (Ac - Ab)] × 100, where Ap is the absorbance of the tested product, Ab the absorbance of the blank and Ac the absorbance of the control wells (culture without treatment). […] Metronidazole (Acros Organics, Madrid, Spain) served as a reference compound for anti-Giardia activity and Anti-Trichomonas activity and amphotericin B for anti-Leishmania activity. Data was analyzed using STATGRAPHICS Centurion XIX ([…].com) (Statgraphics Technologies, Inc., The Plains, VA, USA). The mammalian cells and trophozoites viability were tested with each compound in a dose-response experiment to calculate their relative potency (CC50 or IC50 value, respectively).

[1] = test system: intracellular amastigotes of L. infantum; assay: Infection index of DH82 macrophages infected with L. infantum (intracellular amastigotes); type: cell-based, Leishmania infantum; conditions: for nº Amastigotes/Infected Cell / % Infected Cells / Infection Index: DH82 macrophages, 48 h
Protocol: Anti-Leishmania (AL) activity was assessed on L. infantum promastigotes (MCAN/ES/98/LLM-722), kindly provided by Dr. J.M. Requena from CBM-CSIC, as well as on L. infantum (M/CAN/ES/96/BCN150 zymodeme MON-1), strain isolated from a dog with active visceral leishmaniasis. L. infantum promastigotes (MCAN/ES/98/LLM-722) were cultured in RPMI medium supplemented with 15% FBS and 10 μg/mL of hemin (Acros Organics, Madrid, Spain), grown at 26 °C. Promastigotes in logarithmic growth were seeded in 96-well flat-bottom plates at a volume of 100 μL of culture per well and incubated for 48 h. Promastigotes for macrophage infection (M/CAN/ES/96/BCN150 zymodeme MON-1) were maintained at 26 °C in Schneider’s insect medium (Lonza, Basel, Switzerland) supplemented with 10% FBS and 100 U/mL penicillin and 100 μg/mL streptomycin (Lonza, Basel, Switzerland) (Pen-Strep). Promastigotes in the stationary phase of growth (5–6 days) were washed twice in phosphate-buffered saline at 2700× g for 10 min at 22 °C and employed for macrophage infection.
Canine DH82 (ATCC®-CRL-10389TM) macrophages were maintained in Dulbecco’s modified Eagle’s medium (DMEM) (Thermo Fisher Scientific, Waltham, MA, USA) supplemented with 10% heat-inactivated FBS (Thermo Fisher Scientific, Waltham, MA, USA), and Pen-Strep at 37 °C in 5% CO2.
DH82 cells (5 × 10^4 per well) were seeded in LabTek culture chamber slides (Thermo Scientific, Nunc™, Roskilde, Denmark) and incubated overnight at 37 °C and 5% CO2. On the following day, macrophages were infected with L. infantum stationary phase-promastigotes at a ratio of 5:1 parasites/macrophage and after 4 h of incubation at 37 °C, a time point that reflects initial infection, extracellular promastigotes were removed by washing. Germacrone was added at varying concentrations (10, 50 and 100 μg/mL) and macrophages were incubated in fresh medium for 48 h at 37 °C and 5% CO2. After Giemsa staining, cells were mounted with Vitro-Clud (Deltalab SLU, Barcelona, Spain), and 400 macrophages were counted in duplicate in a microscope Olympus BX41 (Olympus Corporation, Tokyo, Japan). The percentage of infected macrophages and the mean of the number of amastigotes per infected macrophage (defined as the intensity of infection) were evaluated. The infection index was calculated by multiplication of both parameters to account for the overall parasite load.

[2] = test system: G. duodenalis trophozoites; assay: Morphological evaluation by light microscopy (Diff-Quik), G. duodenalis; type: cell-based, Giardia duodenalis; conditions: germacrone 100 µg/mL
Protocol: Each well contained 435 μL of culture medium and 15 μL of the test or control compounds at the above-mentioned concentrations. The chamber included: two wells for growth control (0.5 h, 48 h), two for germacrone (0.5 h, 48 h), and two for metronidazole (0.5 h, 48 h). Incubation was performed at 37 °C. At each time point, the medium was removed, wells were dried, fixed, and stained with Diff-Quik. Morphological changes were analyzed using light microscopy. Experiments were performed as independent biological replicates on different plates, and one Diff-Quik stained smear was obtained per condition and time point per biological replicate. For morphometric analysis, a total of 30 trophozoites per condition and time point were measured across the independent biological replicates and were selected by consecutive sampling during a predefined serpentine (zig-zag) scan across the preparation. Up to two eligible trophozoites per field (intact, well-focused and non-overlapping) were measured in sequential fields until n = 30 was reached, avoiding subjective selection of “representative” cells. Overlapping, partially visible, out-of-focus, edge-of-field, or debris-obscured trophozoites were excluded a priori. Trophozoites were photographed using a researcher's mobile phone mounted to the microscope ocular. Calibration was performed at the same magnification using a stage micrometre and applied in ImageJ v. 1.54d. One Diff-Quik stained smear was obtained per condition/time point per biological replicate Cell length, cell width, cell surface, nuclear length, nuclear width, axoneme (only Giardia), and length of axostyle (only T. gallinae) were measured with ImageJ software, and the data were recorded in an Excel database for statistical analysis. The Shapiro-Wilk test was used to assess the normality of the morphological variables. When data followed a normal distribution, Student's t-test was applied; otherwise, non-parametric tests, such as the Mann-Whitney U test, was used. Values of p < 0.05 were considered significant. For the morphological analysis, the mean, standard deviation, median, and interquartile range were calculated using SPSS version 20 (IBM Corp., Armonk, NY, USA).

[3] = metronidazole 100 µg/mL, 0.5 and 48 h, control DMSO 1%

CC(C)=C1C/C=C(\C)CC/C=C(\C)CC1=O [Compound 2, germacrone]
IC50 (T. gallinae trophozoites): 45.8 µg/mL (≈ 210 µM)
nº Amastigotes/Infected Cell ([1]; 10 µg/mL): 2.4 ± 1.1
% Infected Cells ([1]; 10 µg/mL, control of infection 42.8, listed as Germacrone (2)): 25.9 ± 8.3 %
% Infected Cells ([1]; 10 µg/mL, control of infection 42.8, listed as germacrone (2)): 25.9%
Infection Index ([1]; 10 µg/mL, control of infection 152.1, listed as Germacrone (2)): 61.0 ± 9.4
Infection Index ([1]; 10 µg/mL, control of infection 152.1, listed as germacrone (2)): 61.0
reduction of the infection index ([1]; 10 µg/mL, from 152.1 (control) to 61.0): more than 50%
% Infected Cells ([1]; 50 µg/mL): dead cells
Infection Index ([1]; 50 µg/mL): dead cells
nº Amastigotes/Infected Cell ([1]; 50 µg/mL): dead cells
% Infected Cells ([1]; 100 µg/mL): dead cells
Infection Index ([1]; 100 µg/mL): dead cells
nº Amastigotes/Infected Cell ([1]; 100 µg/mL): dead cells
axoneme length vs control [2, 3]: decreased at 0.5 h; also recorded: at 48 h, germacrone caused an increase
cell length vs control [2, 3]: significant reductions at 30 min
cell width vs control [2, 3]: no differences were observed at 0.5 h with germacrone, but after 48 h, a significant increase
nuclear length (left and right) vs control [2, 3]: decreased significantly with germacrone at 0.5 h and later increased after 48 h
nuclear width vs control [2, 3]: reduction at 0.5 h, followed by an increase at 48 h
morphological changes (light microscopy) ([2]; 48 h of exposure, Diff-Quik): less defined cytoplasm and nucleus of the cells
